# Paper PMC9737664, “Human Milk Oligosaccharide 2′-Fucosyllactose Inhibits Ligand Binding to C-Type Lectin DC-SIGN but Not to Langerin” (International Journal of Molecular Sciences, 2022)
# Target: T1, DC-SIGN (Homo sapiens, UniProt Q9NNX6)
# T1 construct: gene CD209; DC-SIGN-Fc: extracellular domain fused to the Fc portion of human IgG1
# T1 sequence (Q9NNX6 59-404 limits assumed): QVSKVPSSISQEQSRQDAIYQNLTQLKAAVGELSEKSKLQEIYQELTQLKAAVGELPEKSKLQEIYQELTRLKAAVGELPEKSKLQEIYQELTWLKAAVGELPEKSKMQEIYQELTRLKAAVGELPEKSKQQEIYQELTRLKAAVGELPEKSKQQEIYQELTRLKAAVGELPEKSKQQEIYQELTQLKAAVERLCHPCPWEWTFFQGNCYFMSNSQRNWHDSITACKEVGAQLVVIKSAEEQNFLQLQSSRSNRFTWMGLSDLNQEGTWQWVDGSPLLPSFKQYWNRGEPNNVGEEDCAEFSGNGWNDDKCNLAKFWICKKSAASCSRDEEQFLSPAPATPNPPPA
# Experiment: Solid-phase competition ELISA of DC-SIGN-Fc against PAA-fucose and PAA-Le^b; also Le^b bead competition on DC-SIGN expressing cells ([…])
# Type: binding
smiles,measurement,value
"C[C@@H]1O[C@@H](O[C@H]2[C@H](O[C@H]3[C@H](O)[C@@H](O)C(O)O[C@@H]3CO)O[C@H](CO)[C@H](O)[C@@H]2O)[C@@H](O)[C@H](O)[C@@H]1O (stereo partly shown) [2′-FL, 2′-Fucosyllactose]",Solid-phase competition ELISA of DC-SIGN-Fc against PAA-fucose and PAA-Le^b; als,~ 2 mM
